Laboratory results: article PMC9604064, “Comparative Assessment of the Inhibitory Potential of the Herbicide Glyphosate and Its Structural Analogs on RGD-Specific Integrins Using Enzyme-Linked Immunosorbent Assays” (International Journal of Molecular Sciences, 2022)
Entries after “also recorded” stand apart in the source; their conditions may differ. Where two headings read alike, the source gives them in different places.

How the values were obtained:
[1] = biological target: T1, integrin αVβ3 (Homo sapiens, UniProt P05106+P06756); test: biochemical; assay type: binding; details: for inhibition: read-out: Maximal Inhibition Achieved (converted)
T1 construct: purchased R&D Systems Inc. (Minneapolis, MN, USA)
T1 sequence (P06756 31-992): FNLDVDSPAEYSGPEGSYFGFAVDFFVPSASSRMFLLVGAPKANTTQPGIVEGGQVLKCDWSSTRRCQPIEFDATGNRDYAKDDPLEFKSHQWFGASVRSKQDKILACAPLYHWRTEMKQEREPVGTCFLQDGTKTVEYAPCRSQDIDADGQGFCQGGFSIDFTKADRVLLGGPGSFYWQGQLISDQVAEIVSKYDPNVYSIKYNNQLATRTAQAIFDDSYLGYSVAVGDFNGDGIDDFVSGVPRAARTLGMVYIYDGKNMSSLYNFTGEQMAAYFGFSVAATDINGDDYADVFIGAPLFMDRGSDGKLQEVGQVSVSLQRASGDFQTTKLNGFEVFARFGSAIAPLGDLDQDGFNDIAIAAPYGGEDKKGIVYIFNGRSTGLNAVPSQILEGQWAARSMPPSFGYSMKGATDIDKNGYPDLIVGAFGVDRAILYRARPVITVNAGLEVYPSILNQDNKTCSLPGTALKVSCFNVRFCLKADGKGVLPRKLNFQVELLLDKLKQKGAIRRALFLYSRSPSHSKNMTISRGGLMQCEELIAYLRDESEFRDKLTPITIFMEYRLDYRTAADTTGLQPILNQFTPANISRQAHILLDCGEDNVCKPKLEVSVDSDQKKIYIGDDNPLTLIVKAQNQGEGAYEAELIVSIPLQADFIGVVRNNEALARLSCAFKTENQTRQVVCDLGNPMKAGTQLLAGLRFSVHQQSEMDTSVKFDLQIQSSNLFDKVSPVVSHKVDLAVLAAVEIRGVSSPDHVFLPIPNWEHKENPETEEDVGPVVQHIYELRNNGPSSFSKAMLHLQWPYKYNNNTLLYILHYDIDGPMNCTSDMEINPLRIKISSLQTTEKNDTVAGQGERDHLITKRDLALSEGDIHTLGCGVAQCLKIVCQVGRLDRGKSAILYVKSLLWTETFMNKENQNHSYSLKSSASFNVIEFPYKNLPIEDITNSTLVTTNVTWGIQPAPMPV
T1 sequence (P05106 27-718): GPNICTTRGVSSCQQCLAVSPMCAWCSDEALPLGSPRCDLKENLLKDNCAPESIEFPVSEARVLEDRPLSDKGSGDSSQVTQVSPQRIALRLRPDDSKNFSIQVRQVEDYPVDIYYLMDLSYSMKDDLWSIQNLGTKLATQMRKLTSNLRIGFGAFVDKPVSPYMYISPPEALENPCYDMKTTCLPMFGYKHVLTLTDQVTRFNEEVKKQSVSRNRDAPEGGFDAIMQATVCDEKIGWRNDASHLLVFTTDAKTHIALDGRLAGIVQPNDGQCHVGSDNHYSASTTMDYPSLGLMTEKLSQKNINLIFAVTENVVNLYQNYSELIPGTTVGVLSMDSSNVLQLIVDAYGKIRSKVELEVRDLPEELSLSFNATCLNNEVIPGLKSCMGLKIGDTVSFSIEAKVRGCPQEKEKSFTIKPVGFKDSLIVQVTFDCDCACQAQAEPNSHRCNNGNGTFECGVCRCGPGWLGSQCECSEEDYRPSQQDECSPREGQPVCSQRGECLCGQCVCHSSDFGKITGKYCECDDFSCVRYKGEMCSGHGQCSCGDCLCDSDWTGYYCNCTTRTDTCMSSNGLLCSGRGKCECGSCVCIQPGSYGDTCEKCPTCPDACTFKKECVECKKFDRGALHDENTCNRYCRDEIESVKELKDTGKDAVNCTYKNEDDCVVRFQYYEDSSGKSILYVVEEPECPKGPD

[2] = biological target: T1, integrin αVβ3; test: biochemical; assay type: binding; details: for inhibition: at 22 mM (highest concentration), read-out: Maximal Inhibition Achieved (converted)
[3] = biological target: T2, integrin α5β1 (Homo sapiens, UniProt P05556+P08648); test: biochemical; assay type: binding; details: for inhibition: at 22 mM (highest concentration), read-out: Maximal Inhibition Achieved (converted)
T2 construct: purchased R&D Systems Inc. (Minneapolis, MN, USA)

[4] = biological target: T3, integrin αllbβ3 (Homo sapiens, UniProt P05106+P08514); test: biochemical; assay type: binding
T3 construct: purchased Enzyme Research Laboratories Ltd. (Swansea, UK)
T3 sequence (P08514 32-887 limits assumed): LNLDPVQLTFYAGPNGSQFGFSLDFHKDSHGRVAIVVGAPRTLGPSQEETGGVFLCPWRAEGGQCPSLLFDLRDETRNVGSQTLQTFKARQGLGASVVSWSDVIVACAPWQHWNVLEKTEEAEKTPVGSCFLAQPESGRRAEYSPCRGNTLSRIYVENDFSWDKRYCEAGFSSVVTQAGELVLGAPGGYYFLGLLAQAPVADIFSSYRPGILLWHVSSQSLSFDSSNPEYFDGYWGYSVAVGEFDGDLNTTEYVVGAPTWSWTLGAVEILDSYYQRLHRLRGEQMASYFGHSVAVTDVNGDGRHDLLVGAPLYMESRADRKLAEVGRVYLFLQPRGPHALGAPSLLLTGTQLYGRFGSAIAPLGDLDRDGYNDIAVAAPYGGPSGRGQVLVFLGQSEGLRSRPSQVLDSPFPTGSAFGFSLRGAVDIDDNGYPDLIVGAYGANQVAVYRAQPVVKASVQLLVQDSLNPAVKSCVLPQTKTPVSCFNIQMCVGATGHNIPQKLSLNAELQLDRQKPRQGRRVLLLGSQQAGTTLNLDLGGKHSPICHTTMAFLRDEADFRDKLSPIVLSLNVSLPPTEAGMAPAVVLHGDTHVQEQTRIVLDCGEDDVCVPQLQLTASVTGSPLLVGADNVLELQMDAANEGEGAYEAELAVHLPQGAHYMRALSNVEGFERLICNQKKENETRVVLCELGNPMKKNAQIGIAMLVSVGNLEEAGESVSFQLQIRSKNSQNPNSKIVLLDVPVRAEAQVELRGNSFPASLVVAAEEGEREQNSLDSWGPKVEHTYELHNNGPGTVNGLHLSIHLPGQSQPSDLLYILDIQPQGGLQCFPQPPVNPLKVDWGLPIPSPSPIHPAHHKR
T3 sequence (P08514 891-1039 partner limits assumed): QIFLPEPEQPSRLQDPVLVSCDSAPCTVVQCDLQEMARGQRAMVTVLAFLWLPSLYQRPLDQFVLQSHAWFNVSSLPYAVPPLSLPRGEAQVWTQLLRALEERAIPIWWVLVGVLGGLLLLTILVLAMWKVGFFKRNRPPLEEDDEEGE
T3 sequence (P05106 27-788): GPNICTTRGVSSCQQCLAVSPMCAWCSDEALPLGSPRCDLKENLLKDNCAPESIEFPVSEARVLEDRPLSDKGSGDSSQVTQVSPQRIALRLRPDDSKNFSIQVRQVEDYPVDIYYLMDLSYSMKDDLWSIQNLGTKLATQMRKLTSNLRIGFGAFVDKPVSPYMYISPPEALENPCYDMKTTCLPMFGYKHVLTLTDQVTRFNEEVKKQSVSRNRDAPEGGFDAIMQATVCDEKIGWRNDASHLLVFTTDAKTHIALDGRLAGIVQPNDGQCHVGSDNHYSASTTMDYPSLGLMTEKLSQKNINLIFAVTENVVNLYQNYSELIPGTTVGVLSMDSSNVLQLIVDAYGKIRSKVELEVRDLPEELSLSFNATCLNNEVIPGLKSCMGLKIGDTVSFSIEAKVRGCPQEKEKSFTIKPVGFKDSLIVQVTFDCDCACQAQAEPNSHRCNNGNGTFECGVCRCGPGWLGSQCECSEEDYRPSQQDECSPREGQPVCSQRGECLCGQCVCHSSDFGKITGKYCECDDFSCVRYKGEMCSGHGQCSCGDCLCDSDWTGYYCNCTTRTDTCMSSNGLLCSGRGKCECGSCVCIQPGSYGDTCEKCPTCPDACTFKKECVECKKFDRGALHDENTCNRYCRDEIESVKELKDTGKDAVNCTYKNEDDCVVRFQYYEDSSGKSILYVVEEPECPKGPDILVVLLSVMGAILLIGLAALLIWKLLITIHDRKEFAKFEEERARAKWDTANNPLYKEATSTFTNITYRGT

[5] = cited from earlier work
[6] = biological target: T1, integrin αVβ3; assay type: binding; details: immobilized SARS-CoV-2 S-protein; maximal inhibition, range up to 22 mM
[7] = biological target: T1, integrin αVβ3; details: at 11 mM; previously developed assay; cited from earlier work
[8] = test system: MC3T3-E1 cells; details: biosensoric measurement, concentration-dependent, via blocking RGD-specific integrins; cited from earlier work
[9] = parameters: method as in earlier work; details: not marked *; octanol/water; cited from earlier work
[10] = integrin αVβ3, immobilized RGD polymer, at 22 mM (highest concentration)
[11] = integrin αVβ3, immobilized RGD polymer, ligand range 0.1-22 mM
[12] = integrin αVβ3, immobilized vitronectin
[13] = integrin αVβ3, immobilized vitronectin, ligand range 0.1-22 mM
[14] = integrin α5β1, immobilized RGD polymer
[15] = integrin α5β1, immobilized RGD polymer, ligand range 0.1-22 mM
[16] = integrin αllbβ3, immobilized fibrinogen, at 22 mM, activation = higher absorbance than negative control, n. d. = not detected
[17] = integrin αllbβ3, immobilized fibrinogen, ligand range 0.1-22 mM

| Compound | inhibition [1, 10] [%] | IC50 [1, 11] [mM] | inhibition [2, 12] [%] | IC50 [2, 13] [mM] | inhibition [3, 14] [%] | IC50 [3, 15] [mM] | IC50 [4, 17] [mM] | further results |
| --- | --- | --- | --- | --- | --- | --- | --- | --- |
| CC(=O)NCC(=O)O [Acetylglycine] | 46.8 | > 22 | 58.5 | 9.2 ± 1 | 98.9 | 5.8 ± 0.9 | > 22 | Maximal Inhibition Achieved [4, 16]: activation; Maximal Inhibition Achieved ([4]; integrin αllbβ3, immobilized fibrinogen, at 22 mM, activation = higher absorbance than negative control, n. d. = not detected, listed as acetylglycine): high activation |
| NCP(=O)(O)O [Aminomethylphosphonic acid (AMPA), aminomethylphosphonic acid] | 95.9 | 1.3 ± 0.2 | 75.3 | 1.5 ± 0.4 | 44.8 | > 22 | > 22 | Maximal Inhibition Achieved [4, 16]: activation; Maximal Inhibition Achieved ([4]; integrin αllbβ3, immobilized fibrinogen, at 22 mM, activation = higher absorbance than negative control, n. d. = not detected, listed as AMPA): activation; also recorded: activated; Water Solubility ([5]; 20 °C): 56 (20 °C) g/L |
| NCC(=O)O [Glycine] | – | – | – | – | – | – | – | IC50 [1]: > 22 mM; IC50 [2]: > 22 mM; IC50 [3]: > 22 mM; Maximal Inhibition Achieved [3]: >22 (22.1 ± 3.3%); IC50 [4]: > 22 mM |
| O=C(O)CNCP(=O)(O)O [Glyphosate, N-(phosphonomethyl)glycine] | 100 | 2.7 ± 0.5 | 44.8 | > 22 | 85.7 | 9.7 ± 3.2 | > 22 | inhibition ([4]; integrin αllbβ3, immobilized fibrinogen, at 22 mM, activation = higher absorbance than negative control, n. d. = not detected, read-out: Maximal Inhibition Achieved): 40.2%; Inhibition of binding of αVβ3 to S-protein [6]: 35.6 ± 4.4%; Inhibition of RGD-binding capability of αVβ3 integrin [7]: 96.3 ± 3.2%; Adhesion of MC3T3-E1 cells to RGD motif [8]: significantly reduced; Water Solubility ([5]; pH 7.0): 157 g/L |
| O=C(O)CNCC(=O)O [Iminodiacetic acid] | 24.6 | > 22 | 52.4 | 11.5 ± 1.5 | 8 | > 22 | > 22 | Water Solubility ([5]; 5 °C): 24.3 (5 °C) g/L |
| CC(=O)N(CC(=O)O)CP(=O)(O)O [N-acetylglyphosate] | – | > 22 | 47.5 | > 22 | 15 | > 22 | > 22 | inhibition at 22000 µM ([1]; integrin αVβ3, immobilized RGD polymer, at 22 mM (highest concentration), read-out: Maximal Inhibition Achieved): 40.6%; Water Solubility ([5]; temperature or pH not given): slight |
| CNCC(=O)O [Sarcosine] | 35 | > 22 | 37.9 | > 22 | 13.4 | > 22 | > 22 | Clog Po/w [9]: −3.2; Water Solubility ([5]; 20 °C): 89.1 (20 °C) g/L |
| Glyphosate isopropylammonium salt | – | – | – | – | – | – | – | Clog Po/w [9]: −4.16; Water Solubility ([5]; temperature or pH not given): 1050 g/L |
